Literature values in patent US20040157932A1, “Supplements and foods comprising oleylethanolamide” (Natural ASA,, priority 2002, published 2004).

What was measured:
[1] = CLA in animal feed, birds and mammals
[2] = system: CD-4 and CD-8 lymphocyte subpopulations; white blood cells
[3] = system: rat mammary tumorigenesis; details: administration of CLA
[4] = system: human melanoma, colorectal and breast cancer cells; details: in vitro
[5] = diet with 0.5 percent CLA
[6] = rats
[7] = system: cannabinoid receptors
[8] = system: FAAH

For conjugated linoleic acid [CLA], the “efficiency of feed conversion” value [1] is listed as “increased the efficiency of feed conversion”, the “preserving white blood cells” value ([2]; CLA in concentrations of about 0.1 to 1.0 percent) is listed as “effective adjuvant” and the “CD-4 and CD-8 lymphocyte subpopulations” value ([2]; oral or parenteral administration, free acid or salt form) is listed as “elevation”. The rat mammary tumorigenesis [3] was “inhibits”, the “cytotoxicity against human melanoma, colorectal and breast cancer cells” value [4] was “strong cytotoxic agent” and the body weight [5] was “no increase”. For the same compound, the fat content ([5]; pigs, mice, humans) was “significant drop” and the protein mass ([5]; pigs, mice, humans) was “concomitant increase”.
In the case of `CCCCCCCC/C=C\CCCCCCCC(=O)NCCO` [OEA, oleylethanolamide], the desire for food ([6]; OEA in diet) is listed as “reduced desire for food”, the weight gain ([6]; OEA in diet) is listed as “decreased weight gain” and the “effect on the nervous system” value ([6]; in contrast to currently available weight loss drugs) is listed as “not effecting the nervous system”. For the same compound, the “activation of cannabinoid receptors” value [7] was “does not activate”.
For `CCCCCCC(C)OC(=O)CC(=O)CBr` (stereo not shown) [2-octyl y-gamma.-bromoacetoacetate], the FAAH inhibition [8] is listed as “potent”.
